Data on two molecules can be found in patent publication US11691972B2, “Compounds for targeted degradation of BRD9” (C4 Therapeutics, Inc., priority 2020, dated 2023).

One series concerns HEPG2. The experiment in a line: HEPG2 viability. In kind it is cell-based. Particulars: HEPG2 cells.
The subject of the next series is SA13412. The experiment in a line: Synovial sarcoma patient derived xenograft (PDX) model (SA13412), tumor volume. In kind it is in vivo, mice. The following applies: 40 mg/kg orally once a day, 20 days of treatment. The protocol: The x-axis is days after start of treatment measured in days and the y-axis is tumor volume measured in mm^3. The mice were dosed with 40 mg/kg of Compound 172 orally once a day. […] The x axis is treatment measured in days and the y axis is mean tumor volume+SEM measured in cubic millimeters (mm^3). Compound 176 was dosed at 50 mg/kg once a day, 25 mg/kg twice a day, and 16.6 mg/kg three times a day.

The next series addresses CYP 2D6 (Homo sapiens, UniProt P10635). The experiment in a line: CYP inhibition 2D6. In kind it is in vitro ADME.
Series [1] concerns synovial sarcoma xenograft model. The series can be described thus: Tumor volume in a synovial sarcoma xenograft model (FIG. 1). The series is classed as in vivo.
In a further series the target is CYP 3A4 (Homo sapiens, UniProt P08684). The series can be described thus: CYP inhibition 3A4. In kind it is in vitro ADME.
Chain of CYP 3A4 (P08684 whole entry): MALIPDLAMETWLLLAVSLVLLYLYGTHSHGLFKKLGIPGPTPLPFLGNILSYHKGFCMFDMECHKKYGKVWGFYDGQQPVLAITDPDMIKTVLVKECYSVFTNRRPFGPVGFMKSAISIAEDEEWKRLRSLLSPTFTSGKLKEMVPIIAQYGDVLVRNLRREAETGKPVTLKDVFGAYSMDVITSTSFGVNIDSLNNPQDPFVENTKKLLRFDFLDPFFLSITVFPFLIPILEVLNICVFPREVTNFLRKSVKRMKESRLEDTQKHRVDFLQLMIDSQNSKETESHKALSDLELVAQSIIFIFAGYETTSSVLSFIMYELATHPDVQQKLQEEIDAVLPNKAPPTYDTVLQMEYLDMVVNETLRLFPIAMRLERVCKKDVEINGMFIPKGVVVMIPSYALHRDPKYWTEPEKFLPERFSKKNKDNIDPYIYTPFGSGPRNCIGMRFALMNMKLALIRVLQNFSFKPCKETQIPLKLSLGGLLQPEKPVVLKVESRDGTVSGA
A further series is described as follows: Caco-2 permeability. The following applies: human. The series is classed as in vitro ADME.
In the next series the target is E3 (Homo sapiens, UniProt Q96SW2). The series can be described thus: FP-E3 binding (Kd).
Chain of E3 (Q96SW2 whole entry): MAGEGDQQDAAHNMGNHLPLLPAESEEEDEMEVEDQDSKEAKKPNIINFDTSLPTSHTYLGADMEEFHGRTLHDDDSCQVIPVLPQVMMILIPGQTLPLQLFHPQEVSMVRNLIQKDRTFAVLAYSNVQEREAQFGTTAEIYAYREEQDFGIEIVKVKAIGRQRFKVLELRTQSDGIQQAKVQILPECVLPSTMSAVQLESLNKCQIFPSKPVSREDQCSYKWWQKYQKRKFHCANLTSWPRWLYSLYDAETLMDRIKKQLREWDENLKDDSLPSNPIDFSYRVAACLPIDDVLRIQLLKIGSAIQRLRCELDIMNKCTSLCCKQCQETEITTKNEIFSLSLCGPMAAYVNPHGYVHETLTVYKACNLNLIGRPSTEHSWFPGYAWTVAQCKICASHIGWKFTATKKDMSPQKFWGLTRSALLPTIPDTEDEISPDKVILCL
A further series has as its target IKZF1 (Homo sapiens, UniProt Q13422). The series can be described thus: IKZF1 degradation. In kind it is cell-based. The following applies: one value given for IKZF1/SALL4/GSPT1.
For the next series, the target named is CYP 2E1 (Homo sapiens, UniProt P05181). The series can be described thus: CYP inhibition 2E1. The series is classed as in vitro ADME.
Chain of CYP 2E1 (P05181 whole entry): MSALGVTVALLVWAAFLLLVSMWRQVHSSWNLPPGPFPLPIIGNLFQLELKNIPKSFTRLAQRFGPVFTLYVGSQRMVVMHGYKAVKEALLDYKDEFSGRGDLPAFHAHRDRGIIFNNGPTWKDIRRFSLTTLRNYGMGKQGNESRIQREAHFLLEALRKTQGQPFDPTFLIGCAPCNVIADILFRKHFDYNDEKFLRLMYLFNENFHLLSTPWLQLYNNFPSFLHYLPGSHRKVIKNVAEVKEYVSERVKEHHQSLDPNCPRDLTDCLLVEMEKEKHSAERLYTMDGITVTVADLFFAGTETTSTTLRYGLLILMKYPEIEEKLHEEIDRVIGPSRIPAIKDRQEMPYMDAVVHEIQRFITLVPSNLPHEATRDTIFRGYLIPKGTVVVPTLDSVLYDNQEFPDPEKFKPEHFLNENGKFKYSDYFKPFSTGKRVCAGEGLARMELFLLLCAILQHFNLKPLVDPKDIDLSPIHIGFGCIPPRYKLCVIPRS
A further series has as its target CYP 2B6 (Homo sapiens, UniProt P20813). The series can be described thus: CYP inhibition 2B6. In kind it is in vitro ADME.
For series [2], the target named is BRD9 (Canis lupus familiaris, UniProt A0A8I3PU24). The series can be described thus: BRD9 degradation in dog cells (24 h). In kind it is cell-based.
Chain of BRD9 (Canis lupus familiaris, UniProt A0A8I3PU24) (A0A8I3PU24 1-600): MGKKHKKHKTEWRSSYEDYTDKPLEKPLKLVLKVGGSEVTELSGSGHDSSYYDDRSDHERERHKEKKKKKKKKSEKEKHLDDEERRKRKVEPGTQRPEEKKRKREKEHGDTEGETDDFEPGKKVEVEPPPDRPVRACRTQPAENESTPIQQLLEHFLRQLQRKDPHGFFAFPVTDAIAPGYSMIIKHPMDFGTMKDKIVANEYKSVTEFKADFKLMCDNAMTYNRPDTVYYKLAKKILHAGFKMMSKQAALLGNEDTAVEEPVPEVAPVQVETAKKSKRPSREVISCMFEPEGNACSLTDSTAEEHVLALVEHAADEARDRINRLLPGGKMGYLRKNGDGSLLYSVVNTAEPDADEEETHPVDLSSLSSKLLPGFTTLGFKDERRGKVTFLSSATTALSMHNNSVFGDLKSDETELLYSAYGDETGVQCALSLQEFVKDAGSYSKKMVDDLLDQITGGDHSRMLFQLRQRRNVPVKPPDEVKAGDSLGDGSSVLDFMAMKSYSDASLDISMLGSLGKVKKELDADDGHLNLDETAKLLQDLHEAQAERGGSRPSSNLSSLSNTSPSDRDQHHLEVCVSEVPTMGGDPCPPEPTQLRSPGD
Series [3] deals with BRD9 (Mus musculus, UniProt Q3UQU0). The experiment in a line: BRD9 degradation in mouse cells (24 h). The series is classed as cell-based.
Chain of BRD9 (Mus musculus, UniProt Q3UQU0) (Q3UQU0 whole entry): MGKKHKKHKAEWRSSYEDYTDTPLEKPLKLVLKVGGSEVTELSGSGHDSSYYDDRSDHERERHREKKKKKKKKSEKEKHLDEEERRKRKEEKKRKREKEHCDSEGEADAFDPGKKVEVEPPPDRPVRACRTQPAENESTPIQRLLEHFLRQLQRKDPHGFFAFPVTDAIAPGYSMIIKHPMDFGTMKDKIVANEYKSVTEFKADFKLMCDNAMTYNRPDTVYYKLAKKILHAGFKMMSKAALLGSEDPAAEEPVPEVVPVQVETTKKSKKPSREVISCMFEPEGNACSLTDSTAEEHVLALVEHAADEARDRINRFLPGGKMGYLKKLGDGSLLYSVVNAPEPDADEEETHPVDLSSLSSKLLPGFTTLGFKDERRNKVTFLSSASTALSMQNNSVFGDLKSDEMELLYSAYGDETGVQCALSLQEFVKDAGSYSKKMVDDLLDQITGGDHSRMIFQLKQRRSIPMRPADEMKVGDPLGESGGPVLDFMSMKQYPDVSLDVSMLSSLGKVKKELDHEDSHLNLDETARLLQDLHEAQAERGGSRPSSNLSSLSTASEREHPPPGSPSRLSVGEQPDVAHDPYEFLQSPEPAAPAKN
Series [4] deals with T1, BRD9 (Homo sapiens, UniProt Q9H8M2).
T1 sequence (Q9H8M2 1-597): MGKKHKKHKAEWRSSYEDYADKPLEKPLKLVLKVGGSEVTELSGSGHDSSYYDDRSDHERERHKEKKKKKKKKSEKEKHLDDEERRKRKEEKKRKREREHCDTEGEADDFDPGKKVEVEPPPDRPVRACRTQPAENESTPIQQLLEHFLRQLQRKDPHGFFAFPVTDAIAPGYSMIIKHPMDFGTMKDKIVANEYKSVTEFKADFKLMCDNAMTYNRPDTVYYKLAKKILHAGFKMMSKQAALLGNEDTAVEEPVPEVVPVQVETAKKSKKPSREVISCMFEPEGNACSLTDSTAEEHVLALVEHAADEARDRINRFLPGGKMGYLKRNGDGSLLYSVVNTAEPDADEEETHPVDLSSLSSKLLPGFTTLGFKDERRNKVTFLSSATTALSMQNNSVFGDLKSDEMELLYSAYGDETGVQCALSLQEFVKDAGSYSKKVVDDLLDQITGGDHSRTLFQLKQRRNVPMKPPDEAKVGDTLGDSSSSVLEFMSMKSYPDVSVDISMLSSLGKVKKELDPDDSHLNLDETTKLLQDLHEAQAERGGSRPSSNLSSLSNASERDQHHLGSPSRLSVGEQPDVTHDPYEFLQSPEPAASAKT
The series can be described thus: BRD9 degradation kinetics. More on the design: endogenously expressing BRD9 with HiBiT fusion tag via CRISPR; host or cells: 293T.166 (BRD9-HiBiT), also expressing LgBiT ectopically. In kind it is cell-based.

Another series concerns the target T2, BRD4 (Homo sapiens, UniProt O60885).
T2 construct: endogenously expressing BRD4 with HiBiT fusion tag via CRISPR; endogenous in cells; host or cells: 293T.92 (BRD4-HiBiT), generated in-house, also expressing LgBiT ectopically
The experiment in a line: BRD4 degradation (24 h), HiBiT 293T.92 cells. In kind it is cell-based. The text has this:
Dulbecco's modified Eagle medium (DMEM) without phenol red and fetal bovine serum (FBS) were purchased from Gibco (Grand Island, N.Y., USA). Nano-Glo® HiBiT Lytic Assay System was purchased from Promega (Madison, Wis., USA). 293T.166 (BRD9-HiBiT) cell line, endogenously expressing BRD9 with HiBiT fusion tag via CRISPR and ectopically expressing LgBiT tag, was purchased from Promega (Madison, Wis., USA). 293T.167 (BRD7-HiBiT) cell line, endogenously expressing BRD7 with HiBiT fusion tag via CRISPR and ectopically expressing LgBiT tag, was purchased from Promega (Madison, Wis., USA). 293T.92 (BRD4-HiBiT) cell line, endogenously expressing BRD4 with HiBiT fusion tag via CRISPR and ectopically expressing LgBiT tag, was generated in-house. Cell culture flasks and 384-well microplates were acquired from VWR (Radnor, Pa., USA).
BRD9 degradation was determined based on quantification of luminescent signal using Nano-Glo® HiBiT Lytic Assay kit. Test compounds were added to the 384-well plate from a top concentration of 10 μM with 11 points, half log titration in duplicates. 293T.166 cells were added into 384-well plates at a cell density of 10,000 cells per well. […] BRD7 and BRD4 degradation was similarly determined with 293T.167 cells and 293T.92 cells, respectively. […] Luminescence was acquired on EnVision™ Multilabel Reader (PerkinElmer, Santa Clara, Calif., USA).

The nature of series [5]: Body weight change in synovial sarcoma PDX model (SA13412). In kind it is in vivo, mice. Particulars: 50 mg/kg once a day, 25 mg/kg twice a day, 16.6 mg/kg three times a day, FIG. 24. An excerpt: The x axis is treatment measured in days and the y axis is body weight change measured in percentage. Less than 15% loss of body weight was observed on average.
The test system of series [6] is BAF wildtype synovial sarcoma cells (SW982). The series can be described thus: Confluence (growth) over time in SW982 cells. Particulars: various concentrations, FIG. 17. In kind it is cell-based, human.

pIC50, pKd: −log10 of the molar value.

Chain of CYP 2B6 (P20813 whole entry): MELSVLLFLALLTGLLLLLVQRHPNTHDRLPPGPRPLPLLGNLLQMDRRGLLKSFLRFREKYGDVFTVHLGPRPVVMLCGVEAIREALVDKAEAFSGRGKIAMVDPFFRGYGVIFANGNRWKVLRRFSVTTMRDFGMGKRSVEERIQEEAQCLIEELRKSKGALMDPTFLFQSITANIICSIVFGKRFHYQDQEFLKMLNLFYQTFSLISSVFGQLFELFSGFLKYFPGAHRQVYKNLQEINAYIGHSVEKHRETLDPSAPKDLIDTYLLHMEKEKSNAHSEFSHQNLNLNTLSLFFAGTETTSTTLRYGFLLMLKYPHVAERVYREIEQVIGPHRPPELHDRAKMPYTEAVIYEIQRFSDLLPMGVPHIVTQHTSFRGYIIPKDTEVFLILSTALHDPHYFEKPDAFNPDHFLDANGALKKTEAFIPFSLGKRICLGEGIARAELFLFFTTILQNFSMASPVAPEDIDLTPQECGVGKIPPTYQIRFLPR
Chain of IKZF1 (Q13422 whole entry, species assumed): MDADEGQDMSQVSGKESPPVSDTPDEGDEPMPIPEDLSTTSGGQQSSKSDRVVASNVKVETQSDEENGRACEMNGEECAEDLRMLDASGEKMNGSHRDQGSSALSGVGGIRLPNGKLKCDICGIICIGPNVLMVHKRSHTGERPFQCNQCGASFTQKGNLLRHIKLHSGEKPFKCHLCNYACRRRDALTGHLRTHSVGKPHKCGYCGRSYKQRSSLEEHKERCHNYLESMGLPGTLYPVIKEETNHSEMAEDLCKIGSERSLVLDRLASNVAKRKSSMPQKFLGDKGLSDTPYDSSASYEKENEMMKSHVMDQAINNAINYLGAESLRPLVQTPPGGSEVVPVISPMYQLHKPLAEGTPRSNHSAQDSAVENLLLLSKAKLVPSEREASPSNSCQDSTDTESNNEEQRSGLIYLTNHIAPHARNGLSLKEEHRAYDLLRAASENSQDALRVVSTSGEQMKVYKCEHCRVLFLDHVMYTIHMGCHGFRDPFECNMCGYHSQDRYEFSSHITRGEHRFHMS
Chain of CYP 2D6 (P10635 whole entry): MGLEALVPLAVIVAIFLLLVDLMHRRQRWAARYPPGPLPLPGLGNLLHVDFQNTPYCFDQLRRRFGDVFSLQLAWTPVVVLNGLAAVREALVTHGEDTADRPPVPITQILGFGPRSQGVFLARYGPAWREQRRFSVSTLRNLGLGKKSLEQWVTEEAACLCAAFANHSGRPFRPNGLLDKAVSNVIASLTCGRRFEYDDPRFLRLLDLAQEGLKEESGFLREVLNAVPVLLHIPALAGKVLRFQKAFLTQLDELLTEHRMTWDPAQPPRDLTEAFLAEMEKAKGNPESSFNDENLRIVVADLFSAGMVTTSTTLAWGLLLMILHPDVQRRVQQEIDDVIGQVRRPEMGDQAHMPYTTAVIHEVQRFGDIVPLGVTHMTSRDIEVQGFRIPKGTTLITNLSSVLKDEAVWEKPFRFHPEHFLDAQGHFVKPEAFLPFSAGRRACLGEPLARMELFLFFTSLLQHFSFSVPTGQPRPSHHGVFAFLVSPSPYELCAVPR

On to `COc1cc(-c2cn(C)c(=O)c(C)c2C)cc(OC)c1CN1CCC(N2CCN(c3ccc(NC4CCC(=O)NC4=O)cc3F)CC2)C(F)(F)C1` (centres unmarked) [Compound 172, 3-[4-[4-[1-[[2,6-dimethoxy-4-(1,4,5-trimethyl-6-oxo-3-pyridyl)phenyl]methyl]-3,3-difluoro-4-piperidyl]piperazin-1-yl]-3-fluoro-anilino]piperidine-2,6-dione], for which the “HEPG2 Viability” value in the series with HEPG2 was above 9.99 µM. Further, the “tumor volume, PDX model (SA13412)” value in the series with SA13412 was “no appreciable tumor growth”. Besides, the pIC50 was 4.52 against CYP 2D6, 4.74 against CYP 3A4, 4.52 at CYP 2E1 and 7.00 against CYP 2B6. The “tumor volume after treatment” value in series [1] is “strong effect”. Further, the efflux ratio in the series “Caco-2 permeability” came out at 2.64. In addition, the Papp A→B in the series “Caco-2 permeability” (A-B) came out at 7.1 ×10⁻⁶ cm/s. The molecule further showed a Papp B→A in “Caco-2 permeability” (B-A) of 18.7 ×10⁻⁶ cm/s. The same molecule gave a pKd at E3 of 6.02. Besides, the DC50 was above 9990 nM on IKZF1; 99 nM at BRD9 [2] (read-out: BRD9 degradation dog cells (24 h), concentration); 99 nM on BRD9 [3] (read-out: BRD9 degradation mouse cells (24 h), concentration); 2000 nM at BRD4 (24 h, read-out: BRD4 degradation (24 h), IP). For the same molecule, the “BRD9 degradation dog cells (24 h), percent” value at BRD9 [2] is 36.4%. Further, the “BRD9 degradation mouse cells (24 h), percent” value at BRD9 [3] worked out at 36%. Also, the “BRD9 Degradation kinetics, first value” at BRD9 [4] (first of three values, not explained) is given as 11 nM. The “BRD9 Degradation kinetics, second value” at BRD9 [4] (second of three values, not explained) was above 832 nM. The “BRD9 Degradation kinetics, third value (rate)” value on BRD9 [4] (third of three values) is 1.81 h⁻¹. Moreover, on BRD4, the Emax came out at 81%.
Take `COc1cc(-c2cn(C)c(=O)c(C)c2C)cc(OC)c1CN1CCC(N2CCN(c3ccc(NC4CCC(=O)NC4=O)cc3F)CC2)C(F)(F)C1` (single isomer, unassigned) [Compound 176, 3-[4-[4-[1-[[2,6-dimethoxy-4-(1,4,5-trimethyl-6-oxo-3-pyridyl)phenyl]methyl]-3,3-difluoro-4-piperidyl]piperazin-1-yl]-3-fluoro-anilino]piperidine-2,6-dione]: the “loss of body weight on average” value in series [5] is listed as “Less than 15%”. Also, the “confluence as a percentage of control over time” value in [6] was “lack of growth inhibition”.
